Key:
[1] = molecular target: T1, human N-type Ca^2+ channels stably expressed in HEK293 cells (C2D7 cells) (Homo sapiens, UniProt Q00975); assay: cell-based
T1 construct: expressed in transfected cells

[2] = tested on: Sprague-Dawley rats; conditions: rat, in vivo, iv; SEM
[3] = tested on: Sprague-Dawley rats; conditions: rat, in vivo, iv

T1 sequence (Q00975 whole entry, looked up): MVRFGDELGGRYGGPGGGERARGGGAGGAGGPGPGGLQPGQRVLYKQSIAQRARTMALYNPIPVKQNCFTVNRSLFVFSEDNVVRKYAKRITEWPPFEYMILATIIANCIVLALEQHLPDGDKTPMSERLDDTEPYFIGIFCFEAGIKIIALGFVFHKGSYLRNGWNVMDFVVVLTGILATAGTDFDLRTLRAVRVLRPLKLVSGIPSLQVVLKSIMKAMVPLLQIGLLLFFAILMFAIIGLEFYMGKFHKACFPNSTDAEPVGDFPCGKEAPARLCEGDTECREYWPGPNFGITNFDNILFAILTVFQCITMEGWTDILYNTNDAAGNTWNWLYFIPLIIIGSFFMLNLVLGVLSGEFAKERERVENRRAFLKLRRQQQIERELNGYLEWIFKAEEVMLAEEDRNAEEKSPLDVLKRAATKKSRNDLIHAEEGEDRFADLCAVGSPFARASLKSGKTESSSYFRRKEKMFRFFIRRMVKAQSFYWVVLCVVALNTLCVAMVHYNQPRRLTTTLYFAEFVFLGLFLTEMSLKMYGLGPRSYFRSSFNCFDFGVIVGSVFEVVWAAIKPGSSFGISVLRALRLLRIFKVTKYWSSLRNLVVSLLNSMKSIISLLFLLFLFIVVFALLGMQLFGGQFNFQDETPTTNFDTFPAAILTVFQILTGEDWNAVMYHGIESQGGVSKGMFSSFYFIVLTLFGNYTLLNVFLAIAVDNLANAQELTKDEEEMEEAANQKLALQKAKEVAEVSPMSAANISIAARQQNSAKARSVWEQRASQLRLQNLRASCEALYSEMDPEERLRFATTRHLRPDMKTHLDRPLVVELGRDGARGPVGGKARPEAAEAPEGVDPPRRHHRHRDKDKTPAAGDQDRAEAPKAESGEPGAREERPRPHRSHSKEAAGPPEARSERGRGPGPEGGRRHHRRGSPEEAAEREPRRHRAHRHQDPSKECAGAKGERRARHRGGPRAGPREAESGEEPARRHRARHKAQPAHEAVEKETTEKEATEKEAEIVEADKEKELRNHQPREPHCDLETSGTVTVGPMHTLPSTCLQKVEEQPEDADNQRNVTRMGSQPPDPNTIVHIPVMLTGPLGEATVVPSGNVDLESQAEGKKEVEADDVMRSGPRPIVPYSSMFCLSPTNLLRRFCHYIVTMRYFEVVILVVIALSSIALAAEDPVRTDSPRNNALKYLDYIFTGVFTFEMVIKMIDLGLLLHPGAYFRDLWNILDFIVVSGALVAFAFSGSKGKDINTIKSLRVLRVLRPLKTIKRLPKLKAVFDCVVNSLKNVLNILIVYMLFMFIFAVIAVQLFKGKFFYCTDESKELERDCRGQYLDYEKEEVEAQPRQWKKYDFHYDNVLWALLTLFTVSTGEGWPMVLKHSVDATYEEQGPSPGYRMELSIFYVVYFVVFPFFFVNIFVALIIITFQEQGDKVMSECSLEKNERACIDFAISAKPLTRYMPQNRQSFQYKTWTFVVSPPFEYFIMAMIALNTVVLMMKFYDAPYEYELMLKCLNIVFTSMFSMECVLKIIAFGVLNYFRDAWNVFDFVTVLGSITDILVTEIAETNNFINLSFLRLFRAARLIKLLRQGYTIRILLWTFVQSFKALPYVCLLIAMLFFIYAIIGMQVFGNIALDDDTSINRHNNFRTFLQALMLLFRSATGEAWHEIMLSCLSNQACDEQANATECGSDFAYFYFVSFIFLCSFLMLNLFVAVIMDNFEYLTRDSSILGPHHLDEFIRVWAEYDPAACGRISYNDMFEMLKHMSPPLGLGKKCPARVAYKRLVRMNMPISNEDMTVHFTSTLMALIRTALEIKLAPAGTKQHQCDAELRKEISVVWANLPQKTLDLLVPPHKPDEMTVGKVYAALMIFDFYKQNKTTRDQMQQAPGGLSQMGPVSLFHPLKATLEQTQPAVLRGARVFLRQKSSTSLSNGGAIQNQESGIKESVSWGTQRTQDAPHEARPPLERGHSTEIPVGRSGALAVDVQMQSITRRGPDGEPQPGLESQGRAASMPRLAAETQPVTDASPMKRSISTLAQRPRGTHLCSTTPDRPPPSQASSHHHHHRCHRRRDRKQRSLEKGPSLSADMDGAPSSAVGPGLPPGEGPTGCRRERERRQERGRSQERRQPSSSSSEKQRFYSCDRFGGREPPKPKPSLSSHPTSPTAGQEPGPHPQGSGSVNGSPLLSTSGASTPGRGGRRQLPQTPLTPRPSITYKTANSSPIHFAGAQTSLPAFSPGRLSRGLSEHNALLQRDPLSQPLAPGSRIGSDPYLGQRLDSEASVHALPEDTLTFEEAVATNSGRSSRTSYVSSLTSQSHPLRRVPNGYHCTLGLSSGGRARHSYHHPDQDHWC

Compound	IC50 [1]	block of N-type Ca2+ currents [1]	steady-state level to which the currents recovered after washout [1]	mean arterial pressure after 60 min [2]	mean arterial pressure within 3 min after injection [2]	mean blood pressure 5 min after administration [3]	mean blood pressure after 5 h [3]
CC[C@H](C)[C@@H]1NC(=O)[C@H](CCCNC(=N)N)NC(=O)[C@H](CO)NC(=O)[C@@H]2CSSC[C@@H]3NC(=O)[C@H](CO)NC(=O)CNC(=O)[C@H]([C@@H](C)O)NC(=O)[C@H](CSSC[C@H](N)C(=O)N[C@@H](CCCCN)C(=O)NCC(=O)N[C@@H]([C@@H](C)O)C(=O)NCC(=O)N[C@@H](CCCCN)C(=O)N[C@@H](CO)C(=O)N2)NC(=O)[C@H](CSSC[C@@H](C(N)=O)NC(=O)[C@H](CCCCN)NC(=O)CNC(=O)[C@H](CO)NC(=O)[C@H](CCCNC(=N)N)NC3=O)NC(=O)[C@H](CC(N)=O)NC(=O)[C@H](Cc2ccc(O)cc2)NC(=O)[C@H](C)NC1=O [CTx-FVIA, ω-conotoxin FVIA]	11.5 ± 1.4 nM	91.25 ± 1.8%	78.4 ± 5.8%	79.7 ± 4.1 mmHg	56.4 ± 1.0 mmHg	78.9 ± 3.1 mmHg	nearly recovered
CSCC[C@@H]1NC(=O)[C@H](CC(C)C)NC(=O)[C@H](CCCNC(=N)N)NC(=O)[C@H](CO)NC(=O)[C@@H]2CSSC[C@@H]3NC(=O)[C@H](CO)NC(=O)CNC(=O)[C@H]([C@@H](C)O)NC(=O)[C@H](CSSC[C@H](N)C(=O)N[C@@H](CCCCN)C(=O)NCC(=O)N[C@@H](CCCCN)C(=O)NCC(=O)N[C@@H](C)C(=O)N[C@@H](CCCCN)C(=O)N2)NC(=O)[C@H](CSSC[C@@H](C(N)=O)NC(=O)[C@H](CCCCN)NC(=O)CNC(=O)[C@H](CO)NC(=O)[C@H](CCCNC(=N)N)NC3=O)NC(=O)[C@H](CC(=O)O)NC(=O)[C@H](Cc2ccc(O)cc2)NC1=O [CTx-MVIIA, ω-Conotoxin (CTx)-MVIIA, reference compound]	–	87.5 ± 1.9%	19.8 ± 3.8%	65.3 ± 1.9 mmHg	57.3 ± 3.1 mmHg	77.5 ± 1.7 mmHg	87.4 ± 2.6 mmHg
